We go through six compounds from PMC10463376, “Design, synthesis, in vitro anticancer, molecular docking and SAR studies of new series of pyrrolo[2,3-d]pyrimidine derivatives” (BMC Chemistry, 2023).

Converted amounts (≈) assume the structure as drawn.

The test system of one data set is HePG2 liver cancer cells. Kind of data set: MTT assay, HePG2. The following applies: Homo sapiens, HepG2, 72 h; for cytotoxicity at 100 µg/mL: read-out: MTT cell proliferation mortality assay (%) HePG2; for IC50: read-out: IC50 HePG2. The source says:
(§1) All of the following steps were done in a sterile Laminar flow class II biosafety cabinet (Baker, SG406INT, Sanford, ME, USA). DMEM was used as a suspension medium for breast cancer (MCF7), colorectal cancer (HCT116), prostate cancer (PC3), liver cancer (HePG2), pancreatic cancer (PACA2) and lung cancer (A549), while normal cell line (BJ1) was suspended in DMEM-F12 medium. The selected cell lines were purchased from American Type Culture Collection (ATCC). The media were supplemented with a 1% antimycotic-antibiotic mixture (10,000 µg/ml streptomycin sulfate, 25 µg/ml Amphotericin B, and 10,000 U/ml Potassium Penicillin) and 1% L-glutamine. 10 × 10^4cells/well were seeded in 96 well microtiter plates and incubated for 24 h at 37 ℃ under 5% carbon dioxide using a water-jacketed Carbon dioxide incubator (Sheldon, SCO5A, OR, USA). […] After the incubation time of 72 h, the medium was removed. Afterward, 40 µl MTT salt ([…]) was added to each well and kept for 4 h under the same conditions of 37 °C and 5% carbon dioxide. Finally, 200 μl of 10% Sodium dodecyl sulfate (SDS) in deionized water was added to each well and incubated overnight at 37 °C. The step of SDS addition was done to stop the reaction and dissolve the formed formazan crystals. The absorbance was then measured at a wavelength of 595 nm and the reference wavelength was set at 620 nm using a microplate multi-well reader (Bio-Rad Laboratories Inc., model 3356, California, USA). […] A statistical significance analysis was determined between the samples and the negative control using an independent t-test by SPSS 11 program. Dimethyl sulfoxide (DMSO) was the vehicle that dissolved our synthesized compounds and its concentration in the cells was less than 0.2%. IC50 values were calculated using the GraphPad Prism 6 program. The degree of selectivity of the synthetic compounds was expressed as SI = IC50 of a pure compound in a normal cell line/IC50 of the same pure compound in the cancer cell line, where IC50 is the concentration of the compound required to kill 50% of the cells.
On the technique in general: Formazan colour is commonly taken as a measure of viable cells.

Another data set has as its system MCF7 breast cancer cells. The experiment in a line: MTT assay, MCF7. The settings on record: for cytotoxicity at 100 µg/mL / IC50: Homo sapiens, MCF7, 72 h; for cytotoxicity at 100 µg/mL / cytotoxicity: read-out: MTT cell proliferation mortality assay (%) MCF7; for IC50: read-out: IC50 MCF7; for cytotoxicity: at 100 μg/ml, 72 h.
Description: as §1

Data set [1] is described as follows: MTT assay, normal cell line BJ1. The data set is classed as cell-based. The settings on record: human, at 100 μg/ml, read-out: MTT cell proliferation mortality assay (%) BJ1.
Description: as §1

The subject of data set [2] is PC3 prostate cancer cells. Kind of data set: MTT assay, PC3. The following applies: Homo sapiens, 72 h, read-out: MTT cell proliferation mortality assay (%) PC3, at 100 μg/ml, 72 h.
Description: as §1

Data set [3] concerns HCT116 colorectal cancer cells. The experiment in a line: MTT assay, HCT116. The settings on record: for cytotoxicity at 100 µg/mL / IC50: Homo sapiens, HCT-116, 72 h; for cytotoxicity at 100 µg/mL: read-out: MTT cell proliferation mortality assay (%) HCT116, at 100 μg/ml, 72 h; for IC50: read-out: IC50 HCT116; for cytotoxicity: read-out: MTT cell proliferation mortality assay (%) HCT116, at 100 μg/ml, 72 h.
Description: as §1

Data set [4] concerns PACA2 pancreatic cancer cells. Kind of data set: MTT assay, PACA2. The settings on record: Homo sapiens, PaCa-2, 72 h; for IC50: read-out: IC50 PACA2; for cytotoxicity at 100 µg/mL: read-out: MTT cell proliferation mortality assay (%) PACA2.
Description: as §1

The subject of another data set is A549 lung cancer cells. Kind of data set: MTT assay, A549. The settings on record: for cytotoxicity at 100 µg/mL: read-out: MTT cell proliferation mortality assay (%) A549, at 100 μg/ml, 72 h.
Description: as §1

As usually defined, the IC50 is the concentration that inhibits the measured activity by half. In the case of `COc1ccc(-c2cn(-c3ccc(Cl)cc3Cl)c3nc[nH]c(=O)c23)cc1OC` [Compound 3b, 7-(2,4-dichlorophenyl)-5-(3,4-dimethoxyphenyl)-3,7-dihydro-4H-pyrrolo[2,3-d]pyrimidin-4-one], the cytotoxicity at 100 µg/mL in the data set with HePG2 liver cancer cells came to 10.4 ± 1.7%; in the data set with MCF7 breast cancer cells, 11.5 ± 0.8%; in data set [2] it was 15.6 ± 1.3%; in data set [3] it was 14.6 ± 0.1%; in data set [4], 76.3 ± 1.8%; with A549 lung cancer cells (Homo sapiens, A549, 72 h), 8.5 ± 0.6%. Also, in data set [1], the cytotoxicity at 72 h, 100 μg/ml turned out to be 3.5 ± 0.9%. The IC50 in data set [4] was determined as 69.7 ± 1.3 µg/mL (≈ 167 µM).
With `Clc1ccc(-n2c(Cl)c(-c3ccc(Br)cc3)c3c(N4CCOCC4)nc(C(Cl)(Cl)Cl)nc32)c(Cl)c1` [Compound 19, 4-(5-(4-bromophenyl)-6-chloro-7-(2,4-dichlorophenyl)-2-(trichloromethyl)-7H-pyrrolo[2,3-d]pyrimidin-4-yl)morpholine], the IC50 with HePG2 liver cancer cells amounted to 19.4 ± 0.8 µg/mL (≈ 29.6 µM). In addition, the cytotoxicity at 100 µg/mL is 100% in the data set with HePG2 liver cancer cells; 62.3 ± 3.4% with MCF7 breast cancer cells; 3.7 ± 1.1% in data set [2]; 35.9 ± 1.5% in data set [3]; 31.2 ± 5.1% in data set [4]; 5.6 ± 0.7% in the data set on A549 lung cancer cells (Homo sapiens, A549, 72 h). Also, the cytotoxicity at 72 h, 100 μg/ml in data set [1] was determined as 52.7 ± 1.4%.
As to `COc1nc(C(Cl)(Cl)Cl)nc2c1c(-c1ccc(Br)cc1)c(Cl)n2-c1ccc(Cl)cc1Cl` [Compound 8, 5-(4-bromophenyl)-6-chloro-7-(2,4-dichlorophenyl)-4-methoxy-2-(trichloromethyl)-7H-pyrrolo[2,3-d]pyrimidine], the IC50 in the data set on HePG2 liver cancer cells came out at 17.8 ± 1.3 µg/mL (≈ 29.6 µM); in the data set on MCF7 breast cancer cells, 48 ± 1.5 µg/mL (≈ 79.9 µM); in data set [3], 68.1 ± 1 µg/mL (≈ 113 µM); in data set [4], 23.5 ± 0.6 µg/mL (≈ 39.1 µM). Moreover, the cytotoxicity at 100 µg/mL with HePG2 liver cancer cells was 100%; in the data set on MCF7 breast cancer cells, 84.3 ± 2.5%; in data set [2], 13.5 ± 1.5%; in data set [3] it was 80 to 90%; in data set [4] it was 100%; with A549 lung cancer cells (Homo sapiens, A549, 72 h), 19.3 ± 1.2%. The cytotoxicity is 80 to 95% in the data set on MCF7 breast cancer cells and 80 ± 1% in data set [3]. In data set [1], the cytotoxicity at 72 h, 100 μg/ml came out at 15.6 ± 2.8%.
For the compound `O=c1[nH]cnc2c1c(-c1ccc(Br)cc1)cn2-c1ccc(Cl)cc1Cl` [Compound 3a, 5-(4-bromophenyl)-7-(2,4-dichlorophenyl)-3,7-dihydro-4H-pyrrolo[2,3-d]pyrimidin-4-one], the IC50 in the data set with HePG2 liver cancer cells amounted to 19.2 ± 0.6 µg/mL (≈ 44.1 µM); in data set [3] it was 44.5 ± 1.3 µg/mL (≈ 102 µM). Also, the cytotoxicity at 100 µg/mL with HePG2 liver cancer cells was 100%; in the data set on MCF7 breast cancer cells it was 63.5 ± 2.6%; in data set [2], 36.5 ± 0.9%; in data set [3] it was 80 to 90%; in data set [4] it was 71.3 ± 0.8%; in the data set with A549 lung cancer cells (Homo sapiens, A549, 72 h), 3.4 ± 0.2%. In addition, the cytotoxicity at 72 h, 100 μg/ml in data set [1] was found to be 95.3 ± 1.8%. The cytotoxicity in data set [3] worked out at 84.3 ± 1.1%.
Turning to `NNc1nc(C(Cl)(Cl)Cl)nc2c1c(-c1ccc(Br)cc1)c(Cl)n2-c1ccc(Cl)cc1Cl` [Compound 15, 5-(4-bromophenyl)-6-chloro-7-(2,4-dichlorophenyl)-4-hydrazineyl-2-(trichloromethyl)-7H-pyrrolo[2,3-d]pyrimidine], the IC50 with HePG2 liver cancer cells came to 29.1 ± 0.5 µg/mL (≈ 48.4 µM); in the data set on MCF7 breast cancer cells, 42.8 ± 0.6 µg/mL (≈ 71.2 µM); in the data set with A549 lung cancer cells (Homo sapiens, A549, 72 h, read-out: IC50 A549), 54 ± 1.7 µg/mL (≈ 89.9 µM). Also, the cytotoxicity at 100 µg/mL with HePG2 liver cancer cells was 100%; in the data set on MCF7 breast cancer cells it was 81.2 ± 0.8%; in data set [2] it was 65.9 ± 2.4%; in data set [3], 100%; in data set [4], 100%; with A549 lung cancer cells (Homo sapiens, A549, 72 h) it was 80 to 90%. In addition, the cytotoxicity in the data set with MCF7 breast cancer cells was 80 to 95%; in the data set on A549 lung cancer cells (read-out: MTT cell proliferation mortality assay (%) A549, at 100 μg/ml, 72 h), 84.6 ± 0.4%. Also, in data set [1], the cytotoxicity at 72 h, 100 μg/ml was found to be 4.5 ± 0.3%.
Turning to `CN1CCN(c2ncnc3c2c(-c2ccc(Br)cc2)c(Cl)n3-c2ccc(Cl)cc2Cl)CC1` [Compound 16a, 5-(4-bromophenyl)-6-chloro-7-(2,4-dichlorophenyl)-4-(4-methylpiperazin-1-yl)-7H-pyrrolo[2,3-d]pyrimidine], the cytotoxicity at 100 µg/mL in the data set with HePG2 liver cancer cells stood at 100%; in the data set with MCF7 breast cancer cells, 73.6 ± 2.2%; in data set [2], 3.8 ± 0.3%; in data set [3], 73.2 ± 0.8%; in data set [4], 7.5 ± 1.1%; in the data set on A549 lung cancer cells (Homo sapiens, A549, 72 h) it was 3.2 ± 0.5%. The cytotoxicity at 72 h, 100 μg/ml in data set [1] stood at 70.5 ± 0.4%.
